Measured values published in patent publication US8163779B2, “Glucokinase activators” (Takeda San Diego, Inc., priority 2006, dated 2012).
Counter-ions that a name gives are not always drawn.

Target: T1, glucokinase (GK) (Homo sapiens, UniProt P35557)
T1 construct: I.D. No. 1 corresponds to residues 12-465 of glucokinase; made in house; host or cells: E. coli DH10b-T1r
T1 sequence (P35557 with tags, fused parts or gaps isoform P35557-2): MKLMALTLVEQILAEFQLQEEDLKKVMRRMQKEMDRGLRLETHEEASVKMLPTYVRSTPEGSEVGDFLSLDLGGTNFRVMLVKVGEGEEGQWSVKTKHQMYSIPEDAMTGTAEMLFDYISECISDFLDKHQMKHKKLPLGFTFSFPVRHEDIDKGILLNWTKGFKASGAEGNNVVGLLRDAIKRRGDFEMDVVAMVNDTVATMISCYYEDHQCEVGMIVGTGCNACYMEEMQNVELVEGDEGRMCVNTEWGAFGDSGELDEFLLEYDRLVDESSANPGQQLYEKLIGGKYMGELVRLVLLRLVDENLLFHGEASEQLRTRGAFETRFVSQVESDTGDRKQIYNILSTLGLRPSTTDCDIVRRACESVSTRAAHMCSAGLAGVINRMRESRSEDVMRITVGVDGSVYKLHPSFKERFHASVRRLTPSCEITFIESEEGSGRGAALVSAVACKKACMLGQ
Assay: enzymatic glucokinase activity assay (ATP consumption, KinaseGlo luminescence)
Assay type: biochemical
Details: recombinant GK residues 12-465; 5 μM ATP, 5 mM Glucose; Kact = concentration that displays 50% of the maximal increase in GK activity; read-out: pKact
Text: The activity of compounds as glucokinase activators may be assayed in vitro, in vivo or in a cell line. Provided below is an enzymatic glucokinase activity assay.
Purified glucokinase may be obtained as follows. […] SEQ.
The expression of recombinant glucokinase protein may be carried out by transformation and growth of DH10b-T1r E. coli cells incorporating the (pFLAG-CTC) plasmid in LB media. Protein expression can be induced in this system by the addition of IPTG to the culture medium.
Recombinant protein may be isolated from cellular extracts by passage over Sepharose Q Fast Flow resin (Pharmacia). This partially purified GK extract may then be further purified by a second passage over Poros HQ 10 (Applied Biosystems). The purity of GK may be determined on denaturing SDS-PAGE gel. Purified GK may then be concentrated to a final concentration of 20.0 mg/ml. After flash freezing in liquid nitrogen, the proteins can be stored at −78° C. in a buffer containing 25 mM TRIS-HCl pH 7.6, 50 mM NaCl, and 0.5 mM TCEP.
The activation properties of compounds for GK may be determined using a black 384-well-plate format under the following reaction conditions: 25 mM Hepes pH 7.2, 25 mM NaCl, 10 mM MgCl2, 0.01% Brij35, 1 mM DTT, 5 μM ATP, 5 mM Glucose 2% DMSO. The amount of ATP consumed may be determined quantitatively by addition of equal volume of luciferase reagent (luciferase+beetle luciferin—KinaseGlo Luminescent Kinase Assay kit from Promega). The luminescence intensity may be measured by using the Analyst HT from LJL Biosystems.
The reaction mixture may then be incubated at room temperature for 60 min, and quenched and developed by addition of 10 μL of luciferase reagent. Luminescence intensities of the resulting reaction mixtures may be measured after a 10 min incubation at room temperature. The luminescence intensity may be measured by using the Analyst HT from LJL Biosystems.
pKact values may be calculated by non-linear curve fitting of the compound concentrations and luminescence intensities to a standard inhibition/activation equation.

| SMILES | EC50 [µM] |
| --- | --- |
| O=C(Nc1ccc(Cl)cn1)[C@@H](CC1CCOCC1)n1ccc(S(=O)(=O)C2CCCC2)cc1=O [Example 41, (R)-N-(5-chloropyridin-2-yl)-2-(4-(cyclopentylsulfonyl)-2-oxopyridin-1(2H)-yl)-3-(tetrahydro-2H-pyran-4-yl)propanamide] | > 15.8 |
| COc1cc(C)n(C(CC2CCCCC2)C(=O)Nc2nccs2)c(=O)c1 (stereo not drawn) [Example 2, 3-cyclohexyl-2-(4-methoxy-6-methyl-2-oxopyridin-1(2H)-yl)-N-(thiazol-2-yl)propanamide trifluoroacetic acid salt] | > 15.8 |
| O=C(Nc1ncc(Cl)s1)C(CC1CCOCC1)n1cc(Cl)c(S(=O)(=O)C2CCCC2)cc1=O (stereo not drawn) [Example 185, 2-(5-chloro-4-(cyclopentylsulfonyl)-2-oxopyridin-1(2H)-yl)-N-(5-chlorothiazol-2-yl)-3-(tetrahydro-2H-pyran-4-yl)propanamide] | 1.58 to 15.8 |
| Cc1cc(S(=O)(=O)C2CCOCC2)cc(=O)n1[C@H](CC1CCCC1)C(=O)Nc1ncc(F)s1 [Example 194, (R)-3-cyclopentyl-N-(5-fluorothiazol-2-yl)-2-(6-methyl-2-oxo-4-(tetrahydro-2H-pyran-4-ylsulfonyl)pyridin-1(2H)-yl)propanamide] | > 15.8 |
| CS(=O)(=O)c1ccn([C@@H](CC2CCOCC2)C(=O)Nc2ncc(Cl)s2)c(=O)c1 [Example 23, (S)-N-(5-chlorothiazol-2-yl)-2-(4-(methylsulfonyl)-2-oxopyridin-1(2H)-yl)-3-(tetrahydro-2H-pyran-4-yl)propanamide] | 1.58 to 15.8 |
| COCCC(C)(C)S(=O)(=O)c1ccn([C@H](CC2CCOCC2)C(=O)Nc2nc3ccc(OC)nc3s2)c(=O)c1 [Example 120, (R)-2-(4-(4-methoxy-2-methylbutan-2-ylsulfonyl)-2-oxopyridin-1(2H)-yl)-N-(5-methoxythiazolo[5,4-b]pyridin-2-yl)-3-(tetrahydro-2H-pyran-4-yl)propanamide] | > 15.8 |
| Cc1cc(-c2cccc(C#N)c2)cc(=O)n1[C@@H](CC1CCCCC1)C(=O)Nc1nccs1 [Example 97, (S)-2-(4-(3-cyanophenyl)-6-methyl-2-oxopyridin-1(2H)-yl)-3-cyclohexyl-N-(thiazol-2-yl)propanamide] | > 15.8 |
| COc1ccc2nc(NC(=O)[C@@H](CC3CCCCC3)n3ccc(S(=O)(=O)C4CC4)cc3=O)sc2n1 [Example 75, (R)-3-cyclohexyl-2-(4-(cyclopropylsulfonyl)-2-oxopyridin-1(2H)-yl)-N-(5-methoxythiazolo[5,4-b]pyridin-2-yl)propanamide] | 1.58 to 15.8 |
| O=C(Nc1ncc(CN2CCOCC2)s1)C(CC1CCOCC1)n1ccc(S(=O)(=O)C2CC2)cc1=O (stereo not drawn) [Example 145, 2-(4-(cyclopropylsulfonyl)-2-oxopyridin-1(2H)-yl)-N-(5-(morpholinomethyl)thiazol-2-yl)-3-(tetrahydro-2H-pyran-4-yl)propanamide] | > 15.8 |
| Cc1cc(S(=O)(=O)C2CCCC2)cc(=O)n1C(CC1CCCCC1)C(=O)Nc1ncc(Cc2ccc(F)cc2)s1 (stereo not drawn) [Example 82, 3-cyclohexyl-2-(4-(cyclopentylsulfonyl)-6-methyl-2-oxopyridin-1(2H)-yl)-N-(5-(4-fluorobenzyl)thiazol-2-yl)propanamide] | < 1.58 |
| Cc1cc(S(=O)(=O)C2CC2)cc(=O)n1[C@@H](CC1CCCC1)C(=O)Nc1ncc(F)s1 [Example 162, (S)-3-cyclopentyl-2-(4-(cyclopropylsulfonyl)-6-methyl-2-oxopyridin-1(2H)-yl)-N-(5-fluorothiazol-2-yl)propanamide] | < 1.58 |
| Cc1cc(S(=O)(=O)c2cc(Cl)sc2Cl)cc(=O)n1C(CC1CCOCC1)C(=O)Nc1ncc(Cl)s1 (stereo not drawn) [Example 119, N-(5-chlorothiazol-2-yl)-2-(4-(2,5-dichlorothiophen-3-ylsulfonyl)-6-methyl-2-oxopyridin-1(2H)-yl)-3-(tetrahydro-2H-pyran-4-yl)propanamide] | 1.58 to 15.8 |
